Results taken from PubChem BioAssay (NCI).
Values joined by “and” are separate entries in the source; they are usually repeats but may differ in a detail not shown here. Equal entries are not always repeated.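 Tested at 5 concentrations; 48 h exposure; 96-well plates; endpoints linearly interpolated, else capped at highest concentration. The concentration for 50% growth inhibition is given as GI50. The concentration for full growth arrest is given as TGI.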

What was measured:
Assay in all cases: growth of human tumour cells (NCI), 48 h; in the data active means GI50 below about 0.43 µM; inactive means the rest
OVCAR-5 ovarian = tested on: OVCAR-5 ovarian
EKVX NSCLC = tested on: EKVX NSCLC
T-47D breast = tested on: T-47D breast
M14 melanoma = tested on: M14 melanoma
OVCAR-4 ovarian = tested on: OVCAR-4 ovarian
UO-31 renal = tested on: UO-31 renal
DU-145 prostate = tested on: DU-145 prostate
SNB-19 CNS = tested on: SNB-19 CNS
OVCAR-8 ovarian = tested on: OVCAR-8 ovarian
UACC-62 melanoma = tested on: UACC-62 melanoma

O=C(Nc1cccnc1)c1cccc([N+](=O)[O-])c1
> 100 µM: TGI (OVCAR-5 ovarian) | TGI (EKVX NSCLC) | TGI (T-47D breast) | TGI (M14 melanoma) | TGI (OVCAR-4 ovarian) | TGI (UO-31 renal) | TGI (DU-145 prostate) | TGI (SNB-19 CNS) | TGI (OVCAR-8 ovarian) | TGI (UACC-62 melanoma)
inactive: GI50 (OVCAR-5 ovarian) > 100 µM | GI50 (EKVX NSCLC) > 100 µM | GI50 (T-47D breast) > 100 µM | GI50 (M14 melanoma) > 100 µM | GI50 (OVCAR-4 ovarian) > 100 µM | GI50 (UO-31 renal) > 100 µM | GI50 (DU-145 prostate) > 100 µM | GI50 (SNB-19 CNS) > 100 µM | GI50 (OVCAR-8 ovarian) > 100 µM | GI50 (UACC-62 melanoma) > 100 µM

C/C=C(\CCC1NCCc2c1[nH]c1ccccc21)[Si](C)(C)C (centres undefined)
16.6 µM and 8.04 µM: TGI (OVCAR-5 ovarian)
12.6 µM and 9.04 µM: TGI (OVCAR-4 ovarian)
4.89 µM: TGI (T-47D breast)
inactive: GI50 (OVCAR-5 ovarian) 6.34 µM and 2.42 µM | GI50 (M14 melanoma) 4.65 µM and 1.82 µM | GI50 (UO-31 renal) 8.47 µM and 3.65 µM | GI50 (SNB-19 CNS) 15.4 µM and 7.22 µM
28.6 µM and 22.1 µM: TGI (EKVX NSCLC)
8.8 µM and 3.66 µM: TGI (M14 melanoma)
11.8 µM and 12.3 µM: TGI (UACC-62 melanoma)
26.1 µM: TGI (DU-145 prostate)
30 µM and 22 µM: TGI (SNB-19 CNS)
22.5 µM and 10.5 µM: TGI (UO-31 renal)
19.5 µM and 8.79 µM: TGI (OVCAR-8 ovarian)

COc1ccc(N(C)c2nc(Cl)nc3ccn(C)c23)cc1
active: GI50 (EKVX NSCLC) < 0.01 µM | GI50 (M14 melanoma) < 0.01 µM | GI50 (OVCAR-4 ovarian) < 0.01 µM | GI50 (UO-31 renal) 0.139 µM | GI50 (DU-145 prostate) < 0.01 µM | GI50 (SNB-19 CNS) < 0.01 µM | GI50 (OVCAR-8 ovarian) < 0.01 µM | GI50 (UACC-62 melanoma) < 0.01 µM
> 100 µM: TGI (OVCAR-5 ovarian) | TGI (EKVX NSCLC) | TGI (T-47D breast) | TGI (M14 melanoma) | TGI (OVCAR-4 ovarian) | TGI (UO-31 renal) | TGI (DU-145 prostate) | TGI (SNB-19 CNS) | TGI (OVCAR-8 ovarian) | TGI (UACC-62 melanoma)
inactive: GI50 (OVCAR-5 ovarian) 7.54 µM | GI50 (T-47D breast) > 100 µM
